Assays:
[1] = tested on: continuous cell lines of the Beet Armyworm, Spodoptera exigua; conditions: cell proliferation assay; cited from earlier work
Sf21 cells [2] = experiment: Sf21 cell culture: morphology and count of cells displaying processes (transformants); type: cell-based, Spodoptera frugiperda
Drosophila Kc-H line = conditions: cited from earlier work
[3] = tested on: Aedes aegypti established cell line; conditions: 2 days exposure to 3×10^−7 M; cited from earlier work
Sf21 cells [4] = type: cell-based, Spodoptera frugiperda
[5] = tested on: acetylcholinesterase (ACHE); conditions: 10^−6 M; cited from earlier work

Question: For `Cc1c(COC(=O)[C@@H]2[C@H](/C=C(\Cl)C(F)(F)F)C2(C)C)cccc1-c1ccccc1` (racemic) [bifenthrin], which “activity in undifferentiated cells” value [1] is on record?
Answer: low activity

Question: With `CC(C)(O)CC[C@@H](O)[C@](C)(O)[C@H]1CC[C@@]2(O)C3=CC(=O)[C@@H]4C[C@@H](O)[C@@H](O)C[C@]4(C)[C@H]3CC[C@]12C` [20-hydroxyecdysone] as the molecule, how does the “increase in the number of cells showing one or more processes” value (Sf21 cells [2]; 20 μg/ml, counted 2 days after treatment, vs control, n=8) read?
Answer: ~30 fold

Question: What about the “effect on cell morphology” value (Sf21 cells [2]; TNM-FH medium supplemented with 10 μg/ml, 48 hours after passage (FIG. 2)) of the same molecule?
Answer: numerous cells assume the appearance of monopolar neurons, with prominent axon-like structures

Question: What about the “concentration at which cells extend long processes and acquire acetylcholinesterase activity” value (Drosophila Kc-H line) of the same molecule?
Answer: greater than or equal to 10^−8 molar

Question: What about the “stimulation of AChE activity” value [3] of the same molecule?
Answer: 2 fold

Question: With `NC1=N[C@H](O)[C@H]2[C@H]3O[C@]4(O)O[C@@H]([C@@H](O)[C@@]2(N1)[C@@H]4O)[C@]3(O)CO` [TTX, tetrodotoxin] as the molecule, how does the “effect on veratridine-induced increase in transformants” value (Sf21 cells [4]) read?
Answer: blocked

Question: Which “effect on enzyme (AChE)” value [5] does the source give for `CNC(=O)Oc1ccc2c(c1)[C@]1(C)CCN(C)[C@@H]1N2C.CNC(=O)Oc1ccc2c(c1)[C@]1(C)CCN(C)[C@@H]1N2C.O=S(=O)(O)O` [serine sulfate] here?
Answer: blocked

Question: Which “increase in the number of transformants” value (Sf21 cells [4]) does the source give for `COc1ccc(C(=O)O[C@H]2CC[C@@]3(C)[C@@H]4CC[C@H]5[C@]6(O)C[C@H](O)[C@@]7(O)[C@@H](CN8C[C@@H](C)CC[C@H]8[C@@]7(C)O)[C@]6(O)C[C@@]53O[C@]24O)cc1OC` [veratridine] here?
Answer: ~3 fold

Question: For “nerve growth factor: nerve growth factor (NGF)”, which “effect on cell morphology” value (Sf21 cells [2]; 20 μg/ml NGF, 48 hours after passage (FIG. 5)) is on record?
Answer: does not induce any similar morphological changes
